The assay has as its target Proto-oncogene tyrosine-protein kinase Src (Homo sapiens, UniProt P12931). In words: Inhibition of Src.

One may read the IC50 as the concentration at which inhibition is half-maximal.

Chain of Proto-oncogene tyrosine-protein kinase Src (P12931 2-536 limits assumed): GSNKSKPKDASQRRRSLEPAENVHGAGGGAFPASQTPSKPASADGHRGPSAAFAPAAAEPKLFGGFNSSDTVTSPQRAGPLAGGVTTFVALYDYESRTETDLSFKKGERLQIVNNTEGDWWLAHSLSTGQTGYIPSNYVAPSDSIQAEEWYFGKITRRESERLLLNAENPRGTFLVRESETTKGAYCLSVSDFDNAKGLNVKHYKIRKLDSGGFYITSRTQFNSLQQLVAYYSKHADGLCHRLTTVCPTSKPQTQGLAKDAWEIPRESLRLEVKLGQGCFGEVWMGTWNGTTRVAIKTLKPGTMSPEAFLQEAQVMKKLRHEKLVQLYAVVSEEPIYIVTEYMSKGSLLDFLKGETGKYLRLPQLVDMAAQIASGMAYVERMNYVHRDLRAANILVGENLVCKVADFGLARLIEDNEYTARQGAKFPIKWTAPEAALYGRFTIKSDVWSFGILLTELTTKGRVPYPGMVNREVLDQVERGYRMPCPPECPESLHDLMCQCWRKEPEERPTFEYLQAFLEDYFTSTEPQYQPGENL

The compound `COc1cc(Nc2c(C#N)cnc3cc(-c4ncccc4CN4CCOCC4)ccc23)c(Cl)cc1Cl` had an IC50 of 950 nM.
